Laboratory results: PubChem BioAssay AID1963851 (Molecular Pharmacology Branch, DTP, NCI, 2024)

Tested on: 188146-221-R-J1-PDC complex spheroid viability
Assay: Anticancer human tumor 188146-221-R-J1-PDC patient-derived colon adenocarcinoma cell line growth inhibition [POLQ]
Settings: for IC50: curve of first compound; for viability, T/C: stronger effect = lower value
How it was run: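 Growth inhibition in 3D: complex spheroids (tumor PDC, HUVEC, MSC) treated with POLQ inhibitor combinations; where Cmax unknown, highest tested concentration 10 microM, except SN-38 at 1 microM.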

[1] = second compound 0.0316 µM, first compound 0.0316 µM
[2] = second compound 0.0316 µM, first compound 0.1 µM
[3] = second compound 0.0316 µM, first compound 0.316 µM
[4] = second compound 0.0316 µM, first compound 1 µM
[5] = second compound 0.0316 µM, first compound 3.16 µM
[6] = second compound 0.0316 µM, first compound 10 µM
[7] = second compound 0.1 µM, first compound 0.0316 µM
[8] = second compound 0.1 µM, first compound 0.1 µM
[9] = second compound 0.1 µM, first compound 0.316 µM
[10] = second compound 0.1 µM, first compound 1 µM
[11] = second compound 0.1 µM, first compound 3.16 µM
[12] = second compound 0.1 µM, first compound 10 µM
[13] = second compound 0.316 µM, first compound 0.0316 µM
[14] = second compound 0.316 µM, first compound 0.1 µM
[15] = second compound 0.316 µM, first compound 0.316 µM
[16] = second compound 0.316 µM, first compound 1 µM
[17] = second compound 0.316 µM, first compound 3.16 µM
[18] = second compound 0.316 µM, first compound 10 µM
[19] = second compound 1 µM, first compound 0.0316 µM
[20] = second compound 1 µM, first compound 0.1 µM
[21] = second compound 1 µM, first compound 0.316 µM
[22] = second compound 1 µM, first compound 1 µM
[23] = second compound 1 µM, first compound 3.16 µM
[24] = second compound 1 µM, first compound 10 µM
[25] = second compound 3.16 µM, first compound 0.0316 µM
[26] = second compound 3.16 µM, first compound 0.1 µM
[27] = second compound 3.16 µM, first compound 0.316 µM
[28] = second compound 3.16 µM, first compound 1 µM
[29] = second compound 3.16 µM, first compound 3.16 µM
[30] = second compound 3.16 µM, first compound 10 µM
[31] = second compound 10 µM, first compound 0.0316 µM
[32] = second compound 10 µM, first compound 0.1 µM
[33] = second compound 10 µM, first compound 0.316 µM
[34] = second compound 10 µM, first compound 1 µM
[35] = second compound 10 µM, first compound 3.16 µM
[36] = second compound 10 µM, first compound 10 µM
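Also: spheroids exposed to compounds for seven days.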
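For viability, T/C in this document: 100% = DMSO vehicle control viability.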

SMILES: CNCc1ccc(-c2[nH]c3cc(F)cc4c3c2CCNC4=O)cc1 + Nc1ccc(C#CCN(C(=O)Cc2ncc(C(F)(F)F)cc2C(F)(F)F)c2ccc(F)cc2)nn1
- IC50 (second compound 0.0316 µM): > 10 µM
- IC50 (second compound 0.1 µM): > 10 µM
- IC50 (second compound 0.316 µM): > 10 µM
- IC50 (second compound 1 µM): > 10 µM
- IC50 (second compound 3.16 µM): > 10 µM
- IC50 (second compound 10 µM): > 10 µM
- viability, T/C [1]: 114%
- viability, T/C [2]: 107%
- viability, T/C [3]: 109%
- viability, T/C [4]: 106%
- viability, T/C [5]: 103%
- viability, T/C [6]: 120%
- viability, T/C [7]: 111%
- viability, T/C [8]: 104%
- viability, T/C [9]: 100%
- viability, T/C [10]: 113%
- viability, T/C [11]: 108%
- viability, T/C [12]: 116%
- viability, T/C [13]: 114%
- viability, T/C [14]: 100%
- viability, T/C [15]: 85.3%
- viability, T/C [16]: 110%
- viability, T/C [17]: 123%
- viability, T/C [18]: 119%
- viability, T/C [19]: 106%
- viability, T/C [20]: 99.2%
- viability, T/C [21]: 93.5%
- viability, T/C [22]: 111%
- viability, T/C [23]: 104%
- viability, T/C [24]: 100%
- viability, T/C [25]: 102%
- viability, T/C [26]: 94.7%
- viability, T/C [27]: 99.5%
- viability, T/C [28]: 109%
- viability, T/C [29]: 110%
- viability, T/C [30]: 103%
- viability, T/C [31]: 114%
- viability, T/C [32]: 115%
- viability, T/C [33]: 112%
- viability, T/C [34]: 108%
- viability, T/C [35]: 120%
- viability, T/C [36]: 130%

SMILES: COc1cc(C2c3cc4c(cc3C(OC3OC5COC(C)OC5C(O)C3O)C3COC(=O)C23)OCO4)cc(OC)c1O (centres undefined) + COC1C(OC(N)=O)C(O)C(Oc2ccc3c(O)c(NC(=O)c4ccc(O)c(CC=C(C)C)c4)c(=O)oc3c2C)OC1(C)C
- IC50 (second compound 0.0316 µM): 0.905 µM
- IC50 (second compound 0.1 µM): 0.911 µM
- IC50 (second compound 0.316 µM): 0.847 µM
- IC50 (second compound 1 µM): 0.98 µM
- IC50 (second compound 3.16 µM): 0.954 µM
- IC50 (second compound 10 µM): 1.36 µM
- viability, T/C [1]: 116%
- viability, T/C [2]: 103%
- viability, T/C [3]: 78.1%
- viability, T/C [4]: 45.9%
- viability, T/C [5]: 31.3%
- viability, T/C [6]: 21.4%
- viability, T/C [7]: 124%
- viability, T/C [8]: 108%
- viability, T/C [9]: 79.5%
- viability, T/C [10]: 50%
- viability, T/C [11]: 24.8%
- viability, T/C [12]: 29%
- viability, T/C [13]: 103%
- viability, T/C [14]: 111%
- viability, T/C [15]: 80.4%
- viability, T/C [16]: 46.5%
- viability, T/C [17]: 24.7%
- viability, T/C [18]: 23.4%
- viability, T/C [19]: 111%
- viability, T/C [20]: 93.8%
- viability, T/C [21]: 77.3%
- viability, T/C [22]: 52.9%
- viability, T/C [23]: 25.3%
- viability, T/C [24]: 31.6%
- viability, T/C [25]: 105%
- viability, T/C [26]: 103%
- viability, T/C [27]: 81.9%
- viability, T/C [28]: 49.7%
- viability, T/C [29]: 30%
- viability, T/C [30]: 29.2%
- viability, T/C [31]: 119%
- viability, T/C [32]: 103%
- viability, T/C [33]: 97.3%
- viability, T/C [34]: 54.1%
- viability, T/C [35]: 34.7%
- viability, T/C [36]: 27.4%
